Reference: PubChem BioAssay AID256 (DTP/NCI, 2004)
“And” between values parts separate entries of the source, which are not always exact repeats. Identical values can stand only once. Toxic doses and inconclusive results are not listed. How the source made its calls: active means survival T/C of 150% or more; inactive means T/C below 125% in these data.

Tested on: CD2F1 mice, L1210 leukemia ip, survival T/C
Test: NCI In Vivo Anticancer Drug Screen. Data for tumor model L1210 Leukemia (intraperitoneal) in CD2F1 (CDF1) mice
Conditions: higher = longer survival
Summary of the method: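 Ratio T/C, where T is the treated-group value and C the vehicle-dosed control value, from mice implanted with a transplantable tumor.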

[1] = endpoint: mean survival time, dose: 50.0 mg/kg/injection, schedule: Q01DX009 (ip), vehicle: saline
[2] = endpoint: mean survival time, dose: 100.0 mg/kg/injection, schedule: Q01DX009 (ip), vehicle: saline
[3] = endpoint: mean survival time, dose: 200.0 mg/kg/injection, schedule: Q01DX009 (ip), vehicle: saline
[4] = endpoint: mean survival time, dose: 100.0 mg/kg/injection, schedule: Q01DX009 (ip), vehicle: saline with Tween-80
[5] = endpoint: mean survival time, dose: 200.0 mg/kg/injection, schedule: Q01DX009 (ip), vehicle: saline with Tween-80
[6] = endpoint: mean survival time, dose: 400.0 mg/kg/injection, schedule: Q01DX009 (ip), vehicle: saline with Tween-80
[7] = endpoint: mean survival time, dose: 25.0 mg/kg/injection, schedule: Q01DX009 (ip), vehicle: saline with Tween-80
[8] = endpoint: mean survival time, dose: 50.0 mg/kg/injection, schedule: Q01DX009 (ip), vehicle: saline with Tween-80
[9] = endpoint: mean survival time, dose: 25.0 mg/kg/injection, schedule: Q04DX003 (ip), vehicle: saline with Tween-80
[10] = endpoint: mean survival time, dose: 100.0 mg/kg/injection, schedule: Q04DX003 (ip), vehicle: saline with Tween-80
[11] = endpoint: mean survival time, dose: 200.0 mg/kg/injection, schedule: Q04DX003 (ip), vehicle: saline with Tween-80
[12] = endpoint: mean survival time, dose: 100.0 mg/kg/injection, schedule: Q01DX001 (ip), vehicle: saline with Tween-80
[13] = endpoint: mean survival time, dose: 200.0 mg/kg/injection, schedule: Q01DX001 (ip), vehicle: saline with Tween-80
[14] = endpoint: mean survival time, dose: 400.0 mg/kg/injection, schedule: Q01DX001 (ip), vehicle: saline with Tween-80
[15] = endpoint: mean survival time, dose: 6.25 mg/kg/injection, schedule: Q04DX003 (ip), vehicle: saline with Tween-80
[16] = endpoint: mean survival time, dose: 12.5 mg/kg/injection, schedule: Q04DX003 (ip), vehicle: saline with Tween-80
[17] = endpoint: mean survival time, dose: 400.0 mg/kg/injection, schedule: Q04DX003 (ip), vehicle: saline with Tween-80
[18] = endpoint: mean survival time, dose: 100.0 mg/kg/injection, schedule: Q01DX001 (ip), vehicle: saline
[19] = endpoint: mean survival time, dose: 200.0 mg/kg/injection, schedule: Q01DX001 (ip), vehicle: saline
[20] = endpoint: mean survival time, dose: 400.0 mg/kg/injection, schedule: Q01DX001 (ip), vehicle: saline

Measured: T/C

CCOC(=O)C(N)CSC(=O)NC (stereo not given)
inactive: endpoint: mean survival time, dose: 12.5 mg/kg/injection, schedule: Q01DX009 (ip), vehicle: saline 95 % of control | endpoint: mean survival time, dose: 25.0 mg/kg/injection, schedule: Q01DX009 (ip), vehicle: saline 103 % of control and 107 % of control | [1] 116 % of control and 97 % of control | [2] 123 % of control and 105 % of control | [3] 116 % of control and 111 % of control | endpoint: mean survival time, dose: 800.0 mg/kg/injection, schedule: Q01DX009 (ip), vehicle: saline 94 % of control

O=C(N/N=C\c1cc(Cl)ccc1[N+](=O)[O-])c1ccccc1
inactive: endpoint: mean survival time, dose: 100.0 mg/kg/injection, schedule: Q01DX009 (ip), vehicle: Klucel (hydroxypropylcellulose) (HPC) 100 % of control | endpoint: mean survival time, dose: 200.0 mg/kg/injection, schedule: Q01DX009 (ip), vehicle: Klucel (hydroxypropylcellulose) (HPC) 91 % of control | endpoint: mean survival time, dose: 400.0 mg/kg/injection, schedule: Q01DX009 (ip), vehicle: Klucel (hydroxypropylcellulose) (HPC) 94 % of control

O=C(O)c1cccc(Cl)n1
inactive: [4] 97 % of control | [5] 97 % of control | [6] 88 % of control

O=C(O)/C=C/C(=O)Nc1cccc2c1C(=O)c1ccccc1-2
inactive: [7] 97 % of control | [8] 94 % of control | [4] 102 % of control

NC(=O)c1cc(N2CC2)c([N+](=O)[O-])cc1[N+](=O)[O-]
inactive: [7] 114 % of control | [9] 110 % of control | [8] 115 % of control | endpoint: mean survival time, dose: 50.0 mg/kg/injection, schedule: Q04DX003 (ip), vehicle: saline with Tween-80 97 % of control | [10] 106 % of control

C#CC(C)(C)OC(O)C(Cl)(Cl)Cl (stereo not given)
inactive: endpoint: mean survival time, dose: 100.0 mg/kg/injection, schedule: Q04DX002 (ip), vehicle: saline with Tween-80 91 % of control | endpoint: mean survival time, dose: 200.0 mg/kg/injection, schedule: Q04DX002 (ip), vehicle: saline with Tween-80 91 % of control | endpoint: mean survival time, dose: 400.0 mg/kg/injection, schedule: Q04DX002 (ip), vehicle: saline with Tween-80 106 % of control

CC(C)CNC(=O)c1ccc(N=NN(C)Cc2ccncc2)cc1
inactive: [8] 104 % of control | [4] 122 % of control | [10] 105 % of control | [11] 117 % of control

c1ccc(C2COCC2c2ccccc2)cc1 (stereo not given)
inactive: [12] 86 % of control | [13] 92 % of control | [14] 93 % of control

O=[N+]([O-])CC1CCCCC1O (stereo not given)
inactive: endpoint: mean survival time, dose: 6.25 mg/kg/injection, schedule: Q01DX009 (ip), vehicle: saline with Tween-80 89 % of control | [15] 102 % of control | endpoint: mean survival time, dose: 12.5 mg/kg/injection, schedule: Q01DX009 (ip), vehicle: saline with Tween-80 91 % of control | [16] 96 % of control | [7] 94 % of control | [9] 93 % of control

OCc1c(Cl)c(Cl)c(CO)c(Cl)c1Cl
inactive: [4] 95 % of control | [10] 102 % of control | [5] 90 % of control | [11] 100 % of control | [6] 94 % of control | [17] 96 % of control

CN1C2CCC1CC(OC(=O)c1ccccc1)C2 (stereo not given)
inactive: endpoint: mean survival time, dose: 100.0 mg/kg/injection, schedule: Q04DX002 (ip), vehicle: Klucel (hydroxypropylcellulose) (HPC) 121 % of control | endpoint: mean survival time, dose: 200.0 mg/kg/injection, schedule: Q04DX002 (ip), vehicle: Klucel (hydroxypropylcellulose) (HPC) 90 % of control | endpoint: mean survival time, dose: 400.0 mg/kg/injection, schedule: Q04DX002 (ip), vehicle: Klucel (hydroxypropylcellulose) (HPC) 100 % of control

O=C1CN(c2ccccc2)C(=O)C1C(=O)Nc1ccc(Cl)c(Cl)c1 (stereo not given)
inactive: endpoint: median survival time, dose: 25.9 mg/kg/injection, schedule: Q01DX005 (ip), vehicle: saline with Tween-80 104 % of control | endpoint: median survival time, dose: 30.0 mg/kg/injection, schedule: Q01DX005 (ip), vehicle: saline with Tween-80 97 % of control | endpoint: median survival time, dose: 43.0 mg/kg/injection, schedule: Q01DX005 (ip), vehicle: saline with Tween-80 101 % of control and 104 % of control | endpoint: median survival time, dose: 43.2 mg/kg/injection, schedule: Q01DX005 (ip), vehicle: saline with Tween-80 98 % of control and 104 % of control | endpoint: median survival time, dose: 60.0 mg/kg/injection, schedule: Q01DX005 (ip), vehicle: saline with Tween-80 102 % of control

CCCCCCCCCCCCCCC/C([O-])=N/[N+](C)(C)CC(C)O (stereo not given)
inactive: endpoint: mean survival time, dose: 25.0 mg/kg/injection, schedule: Q01DX001 (ip), vehicle: saline 95 % of control and 100 % of control | endpoint: mean survival time, dose: 50.0 mg/kg/injection, schedule: Q01DX001 (ip), vehicle: saline 100 % of control | [8] 89 % of control | [18] 89 % of control and 97 % of control | [4] 91 % of control | [19] 97 % of control | [20] 100 % of control

CC(C)CC(C)NCCO (stereo not given)
inactive: endpoint: mean survival time, dose: 75.0 mg/kg/injection, schedule: Q01DX001 (ip), vehicle: saline 98 % of control | endpoint: mean survival time, dose: 150.0 mg/kg/injection, schedule: Q01DX001 (ip), vehicle: saline 100 % of control

O=C(CCCN1CCC2(CC1)CC(=O)N(N1CCCC1)C2=O)c1ccc(F)cc1
inactive: [12] 108 % of control | [13] 116 % of control | [14] 116 % of control

OCC1(OC2OC(CBr)C(O)C(O)C2O)OC(CBr)C(O)C1O (stereo not given)
inactive: [8] 98 % of control | [4] 91 % of control | [5] 95 % of control

CCCC(=O)c1ccc(C)cc1
inactive: [10] 97 % of control | [17] 88 % of control

O=P(=O)OP(=O)=O.[O]=[W](=[O])=[O]
inactive: [4] 92 % of control | [10] 100 % of control | [11] 100 % of control | [17] 102 % of control

Cc1cc(C)cc(NC(=O)c2ccccc2N)c1
inactive: [4] 107 % of control | [5] 95 % of control | [6] 107 % of control

O=C1CC(=O)N2C=CC=CC2=N1
inactive: endpoint: mean survival time, dose: 100.0 mg/kg/injection, schedule: Q04DX002 (ip), vehicle: saline 122 % of control | endpoint: mean survival time, dose: 200.0 mg/kg/injection, schedule: Q04DX002 (ip), vehicle: saline 96 % of control | endpoint: mean survival time, dose: 400.0 mg/kg/injection, schedule: Q04DX002 (ip), vehicle: saline 92 % of control

C=CCCCCC/C=C/CCCCCC
inactive: [18] 96 % of control | endpoint: mean survival time, dose: 100.0 mg/kg/injection, schedule: Q04DX003 (ip), vehicle: saline 108 % of control | [19] 98 % of control | endpoint: mean survival time, dose: 200.0 mg/kg/injection, schedule: Q04DX003 (ip), vehicle: saline 103 % of control | [20] 104 % of control | endpoint: mean survival time, dose: 400.0 mg/kg/injection, schedule: Q04DX003 (ip), vehicle: saline 106 % of control

CCCCCCCCC(O)C(O)CCCCCCCC(=O)O (stereo not given)
inactive: endpoint: mean survival time, dose: 100.0 mg/kg/injection, schedule: Q04DX003 (ip), vehicle: other 93 % of control | endpoint: mean survival time, dose: 200.0 mg/kg/injection, schedule: Q04DX003 (ip), vehicle: other 98 % of control | endpoint: mean survival time, dose: 400.0 mg/kg/injection, schedule: Q04DX003 (ip), vehicle: other 95 % of control

CCOC(C[Se][Se]CC(OCC)OCC)OCC
inactive: endpoint: mean survival time, dose: 3.13 mg/kg/injection, schedule: Q01DX009 (ip), vehicle: saline 100 % of control | endpoint: mean survival time, dose: 6.25 mg/kg/injection, schedule: Q01DX009 (ip), vehicle: saline 108 % of control | [15] 95 % of control | [16] 102 % of control

CCNCc1cc(Nc2cc(C)nc(/N=C(\N)Nc3ccc(Cl)c(Cl)c3)n2)ccc1OC
inactive: endpoint: mean survival time, dose: 25.0 mg/kg/injection, schedule: Q01DX009 (ip), vehicle: Klucel (hydroxypropylcellulose) (HPC) 100 % of control

Cc1nnnn1C12CC3CC(CC(C3)C1)C2
inactive: endpoint: mean survival time, dose: 9.4 mg/kg/injection, schedule: Q01DX009 (ip), vehicle: saline with Tween-80 94 % of control

CCCCCCN(CCCCCC)CC(O)c1cccc2c1cc(Cl)c1ccccc12 (stereo not given)
inactive: [8] 96 % of control | [4] 100 % of control | [10] 95 % of control | [5] 98 % of control | [11] 101 % of control

C=C1C(=O)OC2CCCC/C=C\C12 (stereo not given)
inactive: [1] 100 % of control | [2] 102 % of control | [3] 97 % of control

Cn1c(=O)c2c(nc(N3CCOCC3)n2CCCNCC(O)c2ccc(O)c(O)c2)n(C)c1=O (stereo not given)
inactive: endpoint: mean survival time, dose: 12.5 mg/kg/injection, schedule: Q01DX005 (ip), vehicle: water 102 % of control | endpoint: mean survival time, dose: 25.0 mg/kg/injection, schedule: Q01DX005 (ip), vehicle: water 96 % of control | endpoint: mean survival time, dose: 50.0 mg/kg/injection, schedule: Q01DX005 (ip), vehicle: water 97 % of control | endpoint: mean survival time, dose: 100.0 mg/kg/injection, schedule: Q01DX005 (ip), vehicle: water 96 % of control | endpoint: mean survival time, dose: 200.0 mg/kg/injection, schedule: Q01DX005 (ip), vehicle: water 92 % of control
